Measured values published in patent US20040086901A1, “Database for analyzing gene function and method of analyzing gene function by dspa” (priority 2000, published 2004).

Legend:
Format in all cases: cell-based, mouse
[1] = test system: NIH3T3 cells overexpressing JNK-DN; assay: MTT cell viability, JNK-DN overexpressing cells vs parental line; details: JNK-DN high-expressing cells / parental cell line, 3 to 4 days
Method: (§1) With regard to the function-known genes, the genes shown in the left column of Table 2 were used. With regard to the drugs, those shown in Table 1 were dissolved in DMSO to an extent of 100-fold of the maximum concentration for the search of the drugs and used. With regard to the cells, incubated NIH3T3 or ras-NIH3T3 cells were used.
(§2) Full-length cDNA of each function-known genes was incorporated into an expression vector (pRc-CMV, etc.) and transfected into NIH3T3 cells by a common method. Transformed cells were isolated using the resistance to G-418 as an index and the expression of the transfected gene in each cell was investigated by Western blotting method to select a highly expressing line.
(§3) Cell viabilities were measured according to the following procedures.
(§4) 1) From the 2nd to the 11th rows of a 96-well plate were filled with DMEM (50 μl). The 12th row was filled with 100 μl of DMEM.
(§5) 2) The 1st row was filled with 98 μl of DMEM.
(§6) 3) Drugs (2 μl each) were added into the 1st row.
(§7) 4) Continuous double-dilution was conducted from the 1st to the 9th rows. Fifty μl were taken out from the 9th row and discarded. The plate was preserved in a CO2 incubator.
(§8) 5) Cells (each high-expressing cells and the parental cell line) were detached from the medium using a trypsin solution, suspended in 10% CS-DMEM and transferred to a test tube and cell numbers (cell/ml) were counted.
(§9) 6) The cells were diluted to a concentration of 1×10^5 cells/ml, and 50 μl of the cell suspension were added to the 1st to the 11th rows of the plate followed by gently stirring.
(§10) 7) The plate was transferred to the CO2 incubator and incubated for 3 to 4 days.
(§11) 8) MTT (5 mg/ml in PBS) (10 μl) was added to the 1st to the 12th rows of the plate and incubated in the CO2 incubator at 37° C. for 4 hours.
(§12) 9) A reaction stop solution (0.04N HCl in isopropanol) (150 μl) was added followed by mixing well and being allowed to stand at room temperature for about 2 hours.
(§13) 10) Coloration of formazan which was a metabolite of the MTT dye was measured using a microplate reader. The measurement wavelength was 574 nm and the reference wavelength was 655 nm. The 10th and the 11th rows of the plate were 100% controls and the 12th row was a 0% control.
(§14) As an index for the sensitivity of highly gene-expressing cells and the parental cell line to various drugs, each of the IC40 values thereof was specified and ratios of the IC40 values were calculated. FIG. 2 and FIG. 3 are the examples where ratios of IC40 values were calculated from a curve showing the dependency on the concentration of the chemical versus the viability. After that, logarithmic values of ratios of IC40 values were calculated from each gene.

[2] = test system: NIH3T3 cells overexpressing CBP8; assay: MTT cell viability, CBP8 overexpressing cells vs parental line; details: CBP8 high-expressing cells / parental cell line, 3 to 4 days
Method: as §1, §2, §3, §4, §5, §6, §7, §8, §9, §10, §11, §12, §13, §14

[3] = test system: NIH3T3 cells overexpressing PDGF-R-Del; assay: MTT cell viability, PDGF-R-Del overexpressing cells vs parental line; details: PDGF-R-Del high-expressing cells / parental cell line, 3 to 4 days
Method: as §1, §2, §3, §4, §5, §6, §7, §8, §9, §10, §11, §12, §13, §14

[4] = test system: NIH3T3 cells overexpressing m-calpain; assay: MTT cell viability, m-calpain overexpressing cells vs parental line; details: m-calpain high-expressing cells / parental cell line, 3 to 4 days
Method: as §1, §2, §3, §4, §5, §6, §7, §8, §9, §10, §11, §12, §13
(§15) As an index for the sensitivity of highly gene-expressing cells and the parental cell line to various drugs, each of the IC40 values thereof was specified and ratios of the IC40 values were calculated. […] After that, logarithmic values of ratios of IC40 values were calculated from each gene.

[5] = test system: NIH3T3 cells overexpressing N-ras; assay: MTT cell viability, N-ras overexpressing cells vs parental line; details: N-ras high-expressing cells / parental cell line, 3 to 4 days
Method: as §1, §2, §3, §4, §5, §6, §7, §8, §9, §10, §11, §12, §13, §14

[6] = test system: NIH3T3 cells overexpressing HSP4O; assay: MTT cell viability, HSP4O overexpressing cells vs parental line; details: HSP4O high-expressing cells / parental cell line, 3 to 4 days
Method: as §1, §2, §3, §4, §5, §6, §7, §8, §9, §10, §11, §12, §13, §14

[7] = test system: NIH3T3 cells overexpressing ERK-DN; assay: MTT cell viability, ERK-DN overexpressing cells vs parental line; details: ERK-DN high-expressing cells / parental cell line, 3 to 4 days
Method: as §1, §2, §3, §4, §5, §6, §7, §8, §9, §10, §11, §12, §13, §15

[8] = test system: NIH3T3 cells, TPA (PKC downreg); assay: MTT cell viability, TPA (PKC downreg) cells vs parental line; details: 3 to 4 days
Method: as §1, §2, §3, §4, §5, §6, §7, §8, §9, §10, §11, §12, §13, §14

[9] = test system: NIH3T3 cells overexpressing p16/INK4A; assay: MTT cell viability, p16/INK4A overexpressing cells vs parental line; details: p16/INK4A high-expressing cells / parental cell line, 3 to 4 days
Method: as §1, §2, §3, §4, §5, §6, §7, §8, §9, §10, §11, §12, §13, §14

[10] = test system: NIH3T3 cells overexpressing Ki-ras; assay: MTT cell viability, Ki-ras overexpressing cells vs parental line; details: Ki-ras high-expressing cells / parental cell line, 3 to 4 days
Method: as §1, §2, §3, §4, §5, §6, §7, §8, §9, §10, §11, §12, §13, §14

[11] = test system: NIH3T3 cells overexpressing PKCepsilon-KN; assay: MTT cell viability, PKCepsilon-KN overexpressing cells vs parental line; details: 3 to 4 days
Method: as §1, §2, §3, §4, §5, §6, §7, §8, §9, §10, §11, §12, §13, §15

[12] = test system: NIH3T3 cells overexpressing Bax; assay: MTT cell viability, Bax overexpressing cells vs parental line; details: 3 to 4 days
Method: as §1, §2, §3, §4, §5, §6, §7, §8, §9, §10, §11, §12, §13, §15

[13] = test system: NIH3T3 cells overexpressing PDGF-R; assay: MTT cell viability, PDGF-R overexpressing cells vs parental line; details: PDGF-R high-expressing cells / parental cell line, 3 to 4 days
Method: as §1, §2, §3, §4, §5, §6, §7, §8, §9, §10, §11, §12, §13, §14

[14] = test system: NIH3T3 cells overexpressing cAMP-PK-CS; assay: MTT cell viability, cAMP-PK-CS overexpressing cells vs parental line; details: cAMP-PK-CS high-expressing cells / parental cell line, 3 to 4 days
Method: as §1, §2, §3, §4, §5, §6, §7, §8, §9, §10, §11, §12, §13, §15

[15] = test system: NIH3T3 cells overexpressing STAT1; assay: MTT cell viability, STAT1 overexpressing cells vs parental line; details: STAT1 high-expressing cells / parental cell line, 3 to 4 days
Method: as §1, §2, §3, §4, §5, §6, §7, §8, §9, §10, §11, §12, §13, §15

[16] = test system: NIH3T3 cells overexpressing calpastatin; assay: MTT cell viability, calpastatin overexpressing cells vs parental line; details: calpastatin high-expressing cells / parental cell line, 3 to 4 days
Method: as §1, §2, §3, §4, §5, §6, §7, §8, §9, §10, §11, §12, §13, §14

[17] = test system: NIH3T3 cells overexpressing Gluco-corticoid-R; assay: MTT cell viability, Gluco-corticoid-R overexpressing cells vs parental line; details: Gluco-corticoid-R high-expressing cells / parental cell line, 3 to 4 days
Method: as §1, §2, §3, §4, §5, §6, §7, §8, §9, §10, §11, §12, §13, §15

[18] = test system: NIH3T3 cells overexpressing HNF4; assay: MTT cell viability, HNF4 overexpressing cells vs parental line; details: HNF4 high-expressing cells / parental cell line, 3 to 4 days
Method: as §1, §2, §3, §4, §5, §6, §7, §8, §9, §10, §11, §12, §13, §15

[19] = test system: NIH3T3 cells overexpressing CaMKIIa-Active; assay: MTT cell viability, CaMKIIa-Active overexpressing cells vs parental line; details: CaMKIIa-Active high-expressing cells / parental cell line, 3 to 4 days
Method: as §1, §2, §3, §4, §5, §6, §7, §8, §9, §10, §11, §12, §13, §14

[20] = PKCepsilon-KN (first of two lines) high-expressing cells / parental cell line
[21] = PKCepsilon-KN (second of two lines) high-expressing cells / parental cell line
[22] = Bax (first of two Bax lines) high-expressing cells / parental cell line
[23] = Bax (second of two Bax lines) high-expressing cells / parental cell line

SMILES | logarithmic value of ratio of IC40 values [1] | logarithmic value of ratio of IC40 values [2] | logarithmic value of ratio of IC40 values [3] | logarithmic value of ratio of IC40 values [4] | logarithmic value of ratio of IC40 values [5] | logarithmic value of ratio of IC40 values [6] | logarithmic value of ratio of IC40 values [8] | logarithmic value of ratio of IC40 values [9] | logarithmic value of ratio of IC40 values [10] | logarithmic value of ratio of IC40 values [11, 20] | logarithmic value of ratio of IC40 values [11, 21] | logarithmic value of ratio of IC40 values [12, 22] | logarithmic value of ratio of IC40 values [12, 23] | logarithmic value of ratio of IC40 values [13] | logarithmic value of ratio of IC40 values [14] | logarithmic value of ratio of IC40 values [15] | logarithmic value of ratio of IC40 values [16] | logarithmic value of ratio of IC40 values [17] | logarithmic value of ratio of IC40 values [18] | logarithmic value of ratio of IC40 values [19] | also measured
C=C[C@]1(C)CC[C@@H](C(=C)C)C[C@H]1C(=C)C [b-elemene, β-elemene] | −0.04 | 0.06 | 0.16 | 0.00 | 0.07 | 0.02 | 0.00 | 0.12 | −0.10 | 0.00 | −0.23 | 0.14 | 0.00 | 0.00 | −0.10 | 0.05 | 0.18 | 0.00 | 0.33 | – | logarithmic value of ratio of IC40 values [7]: 0.33
CN[C@@H]1C[C@H]2O[C@@](C)([C@@H]1OC)n1c3ccccc3c3c4c(c5c6ccccc6n2c5c31)C(=O)NC4 [Staurosporine] | 0.14 | 0.19 | 0.28 | – | 0.24 | 0.30 | −0.12 | −0.22 | 0.38 | – | – | −0.22 | – | 0.24 | −0.12 | – | 0.04 | −0.28 | 0.04 | −0.04 | –
CN(C)CCCn1cc(C2=C(c3c[nH]c4ccccc34)C(=O)NC2=O)c2ccccc21 [GF109203X] | 0.58 | 0.16 | 0.91 | 0.35 | – | −0.07 | 0.09 | 0.48 | −0.40 | −0.17 | 0.32 | 0.22 | 0.27 | 0.00 | 0.27 | 0.41 | – | 0.27 | 0.40 | – | logarithmic value of ratio of IC40 values [7]: 0.48
Nc1nc2nc[nH]c2c(=S)[nH]1 [6-TG, 6-thioguanine] | 0.00 | 0.38 | 0.51 | 0.29 | −0.22 | 0.50 | 0.00 | 0.46 | −0.30 | 0.00 | 0.00 | 0.36 | −0.05 | 0.22 | 0.14 | 0.20 | −0.25 | 0.09 | 0.00 | 0.62 | –
CC(C)(C)C(=O)Oc1ccc(S(=O)(=O)Nc2ccccc2C(=O)NCC(=O)O)cc1 [compound 5046] | −0.09 | 0.12 | −0.07 | −0.04 | 0.23 | −0.15 | −0.10 | 0.22 | 0.51 | −0.21 | – | −0.07 | – | 0.36 | – | 0.05 | −0.1 | – | – | 0.35 | –
C[C@@H]1C[C@@H]([C@H](O)CC2CC(=O)NC(=O)C2)C(=O)[C@@H](C)C1 [CHX, cycloheximide] | 0.00 | 0.00 | 0.39 | 0.22 | −0.42 | 0.00 | 0.00 | 0.04 | −0.43 | 0.06 | 0.20 | −0.08 | 0.00 | 0.51 | 0.23 | 0.00 | 0.31 | – | 0.22 | −0.09 | logarithmic value of ratio of IC40 values [7]: 0.08
